According to PubChem BioAssay (NCI):
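In this assay, cells in 96-well plates receive the compound at five concentrations for 48 hours. Endpoints are linearly interpolated between the surrounding concentrations. GI50: concentration for 50% inhibition of growth. At the TGI there is no net growth.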

What was measured:
Assay in all cases: inhibition of tumour cell growth, NCI panel, 48 h
[1] = tested on: 786-0 renal
[2] = tested on: A498 renal
[3] = tested on: A549 NSCLC
[4] = tested on: ACHN renal
[5] = tested on: BT-549 breast
[6] = tested on: CAKI-1 renal
[7] = tested on: CCRF-CEM leukemia
[8] = tested on: COLO 205 colon
[9] = tested on: DU-145 prostate
[10] = tested on: HCC-2998 colon
[11] = tested on: HCT-116 colon
[12] = tested on: HCT-15 colon
[13] = tested on: HL-60(TB) leukemia
[14] = tested on: HOP-62 NSCLC
[15] = tested on: HOP-92 NSCLC
[16] = tested on: HS 578T breast
[17] = tested on: HT29 colon
[18] = tested on: IGROV1 ovarian
[19] = tested on: K-562 leukemia
[20] = tested on: KM12 colon
[21] = tested on: LOX IMVI melanoma
[22] = tested on: M14 melanoma
[23] = tested on: MALME-3M melanoma
[24] = tested on: MCF7 breast
[25] = tested on: MDA-MB-231 breast
[26] = tested on: MDA-MB-435
[27] = tested on: MOLT-4 leukemia
[28] = tested on: NCI-H226 lung
[29] = tested on: NCI-H23 lung
[30] = tested on: NCI-H460 lung
[31] = tested on: NCI-H522 lung
[32] = tested on: NCI/ADR-RES ovarian
[33] = tested on: OVCAR-3 ovarian
[34] = tested on: OVCAR-4 ovarian
[35] = tested on: OVCAR-5 ovarian
[36] = tested on: OVCAR-8 ovarian
[37] = tested on: PC-3 prostate
[38] = tested on: RPMI-8226 leukemia
[39] = tested on: RXF 393 renal
[40] = tested on: SF-268 CNS
[41] = tested on: SF-295 CNS
[42] = tested on: SF-539 CNS
[43] = tested on: SK-MEL-2 melanoma
[44] = tested on: SK-MEL-28 melanoma
[45] = tested on: SK-MEL-5 melanoma
[46] = tested on: SK-OV-3 ovarian
[47] = tested on: SN12C renal
[48] = tested on: SNB-19 CNS
[49] = tested on: SNB-75 CNS
[50] = tested on: SR leukemia
[51] = tested on: SW-620 colon
[52] = tested on: T-47D breast
[53] = tested on: TK-10 renal
[54] = tested on: U251 CNS
[55] = tested on: UACC-257 melanoma
[56] = tested on: UACC-62 melanoma
[57] = tested on: UO-31 renal

O=C1/C(=C/c2ccc([N+](=O)[O-])o2)Oc2ccc(Br)cc21
GI50 [1]: 2.47 µM | TGI [1]: 5.29 µM | GI50 [2]: 15.9 µM | TGI [2]: 30.1 µM | GI50 [3]: 18.5 µM | TGI [3]: 35.3 µM | GI50 [4]: 1.85 µM | TGI [4]: 3.77 µM | GI50 [5]: 1.87 µM | TGI [5]: 3.5 µM | GI50 [6]: 2.31 µM | TGI [6]: 6.59 µM | GI50 [7]: 2 µM | TGI [7]: 4.97 µM | GI50 [8]: 2.83 µM | TGI [8]: 7.32 µM | GI50 [9]: 9.31 µM | TGI [9]: 21.1 µM | GI50 [10]: 8.01 µM | TGI [10]: 27.5 µM | GI50 [11]: 1.9 µM | TGI [11]: 3.46 µM | GI50 [12]: 2.62 µM | TGI [12]: 8.36 µM | GI50 [13]: 6.7 µM | TGI [13]: 25.7 µM | GI50 [14]: 15 µM | TGI [14]: 34.4 µM | GI50 [15]: 1.52 µM | TGI [15]: 3.1 µM | GI50 [16]: 3.91 µM | TGI [16]: 26.9 µM | GI50 [17]: 2.64 µM | TGI [17]: 5.78 µM | GI50 [18]: 1.94 µM | TGI [18]: 4.1 µM | GI50 [19]: 1.92 µM | TGI [19]: 4.59 µM | GI50 [20]: 3.85 µM | TGI [20]: 13 µM | GI50 [21]: 1.82 µM | TGI [21]: 3.55 µM | GI50 [22]: 2.68 µM | TGI [22]: 7.01 µM | GI50 [23]: 1.92 µM | TGI [23]: 4.74 µM | GI50 [24]: 2.05 µM | TGI [24]: 5.17 µM | GI50 [25]: 1.8 µM | TGI [25]: 3.84 µM | GI50 [26]: 1.9 µM | TGI [26]: 4.03 µM | GI50 [27]: 3.07 µM | TGI [27]: 9.4 µM | GI50 [28]: 2.12 µM | TGI [28]: 5.37 µM | GI50 [29]: 6.76 µM | TGI [29]: 23.1 µM | GI50 [30]: 10.6 µM | TGI [30]: 24.2 µM | GI50 [31]: 1.88 µM | TGI [31]: 3.35 µM | GI50 [32]: 10.9 µM | TGI [32]: 42 µM | GI50 [33]: 1.99 µM | TGI [33]: 3.56 µM | GI50 [34]: 2.37 µM | TGI [34]: 6.18 µM | GI50 [35]: 2.57 µM | TGI [35]: 9.17 µM | GI50 [36]: 3.01 µM | TGI [36]: 9.32 µM | GI50 [37]: 3.52 µM | TGI [37]: 15.2 µM | GI50 [38]: 2.32 µM | TGI [38]: 6.03 µM | GI50 [39]: 1.68 µM | TGI [39]: 3.21 µM | GI50 [40]: 2.04 µM | TGI [40]: 4.16 µM | GI50 [41]: 17.1 µM | TGI [41]: 36.8 µM | GI50 [42]: 1.89 µM | TGI [42]: 4.19 µM | GI50 [43]: 2.24 µM | TGI [43]: 4.43 µM | GI50 [44]: 2.19 µM | TGI [44]: 4.83 µM | GI50 [45]: 2.67 µM | TGI [45]: 8.17 µM | GI50 [46]: 17.6 µM | TGI [46]: 32.2 µM | GI50 [47]: 1.96 µM | TGI [47]: 4.53 µM | GI50 [48]: 16.1 µM | TGI [48]: 30 µM | GI50 [49]: 15.2 µM | TGI [49]: 52.9 µM | GI50 [50]: 0.77 µM | TGI [50]: 5.52 µM | GI50 [51]: 1.69 µM | TGI [51]: 3.23 µM | GI50 [52]: 1.92 µM | TGI [52]: 4.39 µM | GI50 [53]: 2.11 µM | TGI [53]: 3.88 µM | GI50 [54]: 14.9 µM | TGI [54]: 28.7 µM | GI50 [55]: 2 µM | TGI [55]: 4.38 µM | GI50 [56]: 1.84 µM | TGI [56]: 4.09 µM | GI50 [57]: 1.46 µM | TGI [57]: 3.02 µM
